These results are taken from US10435405B2, “Pyrazolopyridine compounds and uses thereof” (Incyte Corporation, priority 2016, dated 2019).

In this test the target is HPK1 (Homo sapiens (Human), UniProt Q92918). The test can be described thus: HPK1 Kinase Binding Assay. An outline of the steps:
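Active HPK1 (added as 4 nM solution) was combined with compound (3-fold, 11-point series) and tracer 222 (18 nM) plus Eu-anti-GST antibody (4 nM) in 50 mM HEPES pH 7.5 with MgCl2 and DTT. After 1 h at 25 °C plates were read. Ki values were derived.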

Sequence of HPK1 (Q92918 1-346): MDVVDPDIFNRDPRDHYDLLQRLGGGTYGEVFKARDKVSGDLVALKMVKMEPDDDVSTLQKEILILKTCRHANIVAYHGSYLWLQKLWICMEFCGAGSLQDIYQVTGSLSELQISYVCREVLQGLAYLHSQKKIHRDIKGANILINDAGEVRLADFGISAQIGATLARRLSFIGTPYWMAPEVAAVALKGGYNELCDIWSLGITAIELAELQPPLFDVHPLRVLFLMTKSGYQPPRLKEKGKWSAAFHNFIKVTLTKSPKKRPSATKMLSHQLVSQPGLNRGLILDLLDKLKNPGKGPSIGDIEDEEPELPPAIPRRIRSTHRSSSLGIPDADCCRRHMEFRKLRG

`CNCc1ccc(-c2cc3c(-c4cnn(C)c4)n[nH]c3cn2)c(C)c1` [Example 111, N-Methyl-1-(3-methyl-4-(3-(1-methyl-1H-pyrazol-4-yl)-1H-pyrazolo[3,4-c]pyridin-5-yl)phenyl)methanamine]: the Ki is no more than 100 nM.
To `Cc1c(CNC(C)C)ccc(F)c1-c1cc2c(-c3cnn(C)c3)n[nH]c2cn1` [Example 93, N-(4-Fluoro-2-methyl-3-(3-(1-methyl-1H-pyrazol-4-yl)-1H-pyrazolo[3,4-c]pyridin-5-yl)benzyl)propan-2-amine] belongs no more than 100 nM.
To `Cc1cc(NC(=O)CCN(C)C)cc(F)c1-c1cc2c(-c3cnn(C)c3)n[nH]c2cn1` [Example 84, 3-(Dimethylamino)-N-(3-fluoro-5-methyl-4-(3-(1-methyl-1H-pyrazol-4-yl)-1H-pyrazolo[3,4-c]pyridin-5-yl)phenyl)propanamide] belongs no more than 100 nM; to `CNCc1cc(F)c(-c2cc3c(-c4cnn(C)c4)n[nH]c3cn2)c(C(F)(F)F)c1` [Example 131, 1-(3-Fluoro-4-(3-(1-methyl-1H-pyrazol-4-yl)-1H-pyrazolo[3,4-c]pyridin-5-yl)-5-(trifluoromethyl)phenyl)-N-methylmethanamine], no more than 100 nM; to `Cc1cccc(C)c1-c1cc2c(-c3ccc(N4CCN(C)CC4)cc3)n[nH]c2cn1` [Example 45, 5-(2,6-Dimethylphenyl)-3-(4-(4-methylpiperazin-1-yl)phenyl)-1H-pyrazolo[3,4-c]pyridine], no more than 100 nM.
`CNCc1cc(F)c(-c2cc3c(-c4cnc(N5CCN(C)CC5)nc4)n[nH]c3cn2)c(F)c1` [Example 217, 1-(3,5-Difluoro-4-(3-(2-(4-methylpiperazin-1-yl)pyrimidin-5-yl)-1H-pyrazolo[3,4-c]pyridin-5-yl)phenyl)-N-methylmethanamine] had an inhibitory constant (Ki) of no more than 100 nM.
To `CNCc1ccc(-c2cc3c(-c4cnn(C)c4)n[nH]c3cn2)c(C(F)(F)F)c1` [Example 112, N-Methyl-1-(4-(3-(1-methyl-1H-pyrazol-4-yl)-1H-pyrazolo[3,4-c]pyridin-5-yl)-3-(trifluoromethyl)phenyl)methanamine] belongs no more than 100 nM; to `CC(C)NCc1ccc(F)c(-c2cc3c(-c4cnn(C)c4)n[nH]c3cn2)c1F` [Example 128, N-(2,4-Difluoro-3-(3-(1-methyl-1H-pyrazol-4-yl)-1H-pyrazolo[3,4-c]pyridin-5-yl)benzyl)propan-2-amine], no more than 100 nM.
Turning to `CNC(=O)c1ccc(-c2n[nH]c3cnc(-c4c(F)cccc4OC)cc23)cc1C` [Example 103, 4-(5-(2-Fluoro-6-methoxyphenyl)-1H-pyrazolo[3,4-c]pyridin-3-yl)-N,2-dimethylbenzamide], the Ki was no more than 100 nM.
The figure for `CNC(=O)c1ccc(-c2n[nH]c3cnc(-c4c(F)cccc4OC)cc23)cc1F` [Example 100, 2-Fluoro-4-(5-(2-fluoro-6-methoxyphenyl)-1H-pyrazolo[3,4-c]pyridin-3-yl)-N-methylbenzamide] is no more than 100 nM.
For the compound `CNCc1cc(F)c(-c2cc3c(-c4cnn(CCO)c4)n[nH]c3cn2)c(F)c1` [Example 164, 2-(4-(5-(2,6-Difluoro-4-((methylamino)methyl)phenyl)-1H-pyrazolo[3,4-c]pyridin-3-yl)-1H-pyrazol-1-yl)ethanol], the Ki was no more than 100 nM.
Compound `CNC(C)c1cc(C)c(-c2cc3c(-c4cnn(C5CC5)c4)n[nH]c3cn2)c(F)c1` (single isomer, unassigned) [Example 229, 1-(4-(3-(1-Cyclopropyl-1H-pyrazol-4-yl)-1H-pyrazolo[3,4-c]pyridin-5-yl)-3-fluoro-5-methylphenyl)-N-methylethanamine] gave a Ki of no more than 100 nM.
To `COc1cccc(C(=O)Nc2n[nH]c3cnc(-c4c(F)cc(CNC(C)C)cc4F)cc23)c1` [Example 146, N-(5-(2,6-Difluoro-4-((isopropylamino)methyl)phenyl)-1H-pyrazolo[3,4-c]pyridin-3-yl)-3-methoxybenzamide] belongs no more than 100 nM; to `Cc1cccc(F)c1-c1cc2c(NC(=O)c3ccc(N4CCN(C)CC4)cc3NC3CCC(C#N)C3)n[nH]c2cn1` (stereo not drawn) [Example 160, 2-(3-Cyanocyclopentylamino)-N-(5-(2-fluoro-6-methylphenyl)-1H-pyrazolo[3,4-c]pyridin-3-yl)-4-(4-methylpiperazin-1-yl)benzamide], no more than 100 nM; to `CCNCc1cccc(-c2cc3c(-c4cnn(C)c4)n[nH]c3cn2)c1C(F)(F)F` [Example 237, N-(3-(3-(1-Methyl-1H-pyrazol-4-yl)-1H-pyrazolo[3,4-c]pyridin-5-yl)-2-(trifluoromethyl)benzyl)ethanamine], no more than 100 nM.
The figure for `COc1cccc(F)c1-c1cc2c(-c3cnc(N4CCOCC4)s3)n[nH]c2cn1` [Example 34, 4-(5-(5-(2-Fluoro-6-methoxyphenyl)-1H-pyrazolo[3,4-c]pyridin-3-yl)thiazol-2-yl)morpholine] is no more than 100 nM.
Take `COC1CN(C(=O)c2cc(F)c(-c3cc4c(-c5cnn(C)c5)n[nH]c4cn3)c(F)c2)C1` [Example 58, (3,5-Difluoro-4-(3-(1-methyl-1H-pyrazol-4-yl)-1H-pyrazolo[3,4-c]pyridin-5-yl)phenyl)(3-methoxyazetidin-1-yl)methanone]: the Ki is no more than 100 nM.
To `COc1cccc(F)c1-c1cc2c(NC(=O)c3ccc(N4CCOCC4)cc3)n[nH]c2cn1` [Example 24, N-(5-(2-Fluoro-6-methoxyphenyl)-1H-pyrazolo[3,4-c]pyridin-3-yl)-4-morpholinobenzamide] belongs no more than 100 nM; to `COc1cccc(F)c1-c1cc2c(NC(=O)c3cccc(Br)c3)n[nH]c2cn1` [Example 4, 3-Bromo-N-(5-(2-fluoro-6-methoxyphenyl)-1H-pyrazolo[3,4-c]pyridin-3-yl)benzamide], no more than 100 nM; to `CNC(=O)c1ccc(-c2n[nH]c3cnc(-c4c(F)cc5c(c4F)CCCC5NC)cc23)cc1` (stereo not drawn) [Example 201, 4-(5-(1,3-Difluoro-5-(methylamino)-5,6,7,8-tetrahydronaphthalen-2-yl)-1H-pyrazolo[3,4-c]pyridin-3-yl)-N-methylbenzamide], no more than 100 nM.
The figure for `Cn1cc(-c2n[nH]c3cnc(-c4c(F)cc(CNc5ccccn5)cc4F)cc23)cn1` [Example 124, N-(3,5-Difluoro-4-(3-(1-methyl-1H-pyrazol-4-yl)-1H-pyrazolo[3,4-c]pyridin-5-yl)benzyl)pyridin-2-amine] is no more than 100 nM; for `COc1cccc(F)c1-c1cc2c(-c3ccc(N4CCN(C)CC4)cc3)n[nH]c2cn1` [Example 43, 5-(2-Fluoro-6-methoxyphenyl)-3-(4-(4-methylpiperazin-1-yl)phenyl)-1H-pyrazolo[3,4-c]pyridine] it is no more than 100 nM; for `CNC(C)c1cc(C)c(-c2cc3c(-c4cnn(C5CC5)c4)n[nH]c3cn2)c(F)c1` (single isomer, unassigned) [Example 228, 1-(4-(3-(1-Cyclopropyl-1H-pyrazol-4-yl)-1H-pyrazolo[3,4-c]pyridin-5-yl)-3-fluoro-5-methylphenyl)-N-methylethanamine] it is no more than 100 nM.
The figure for `COc1cccc(F)c1-c1cc2c(NC(=O)c3cccc(N4CCNC(=O)C4)c3)n[nH]c2cn1` [Example 17, N-(5-(2-Fluoro-6-methoxyphenyl)-1H-pyrazolo[3,4-c]pyridin-3-yl)-3-(3-oxopiperazin-1-yl)benzamide] is no more than 100 nM; for `Cc1cc(CNCCO)cc(F)c1-c1cc2c(-c3cnn(C)c3)n[nH]c2cn1` [Example 180, 2-(3-Fluoro-5-methyl-4-(3-(1-methyl-1H-pyrazol-4-yl)-1H-pyrazolo[3,4-c]pyridin-5-yl)benzylamino)ethanol] it is no more than 100 nM.
`COc1cccc(F)c1-c1cc2c(N3CCN(c4ccc(C#N)cc4)CC3)n[nH]c2cn1` [Example 39, 4-(4-(5-(2-Fluoro-6-methoxyphenyl)-1H-pyrazolo[3,4-c]pyridin-3-yl)piperazin-1-yl)benzonitrile] showed a Ki of no more than 100 nM.
To `Cc1cc(C2CCCCN2)cc(F)c1-c1cc2c(-c3cnn(C4CC4)c3)n[nH]c2cn1` (single isomer, unassigned) [Example 233, 3-(1-Cyclopropyl-1H-pyrazol-4-yl)-5-(2-fluoro-6-methyl-4-(piperidin-2-yl)phenyl)-1H-pyrazolo[3,4-c]pyridine] belongs no more than 100 nM.
`CNC1CCc2cc(F)c(-c3cc4c(-c5ccc(N6CCN(C)CC6)cc5)n[nH]c4cn3)c(F)c21` (stereo not drawn) [Example 205, 5,7-Difluoro-N-methyl-6-(3-(4-(4-methylpiperazin-1-yl)phenyl)-1H-pyrazolo[3,4-c]pyridin-5-yl)-2,3-dihydro-1H-inden-1-amine] returned an inhibition constant (Ki) of no more than 100 nM.
Compound `CNCc1ccc(C)c(-c2cc3c(-c4cnn(C)c4)n[nH]c3cn2)c1` [Example 87, N-Methyl-1-(4-methyl-3-(3-(1-methyl-1H-pyrazol-4-yl)-1H-pyrazolo[3,4-c]pyridin-5-yl)phenyl)methanamine] showed a Ki of no more than 100 nM.
The figure for `COC(=O)N1CCN(c2ccc(C(=O)Nc3n[nH]c4cnc(-c5c(F)cc(CNC(C)C)cc5F)cc34)c(F)c2)CC1` [Example 148, Methyl 4-(4-(5-(2,6-difluoro-4-((isopropylamino)methyl)phenyl)-1H-pyrazolo[3,4-c]pyridin-3-ylcarbamoyl)-3-fluorophenyl)piperazine-1-carboxylate] is no more than 100 nM; for `Cc1c(CNCC2(C)CC2)ccc(F)c1-c1cc2c(-c3cnn(C)c3)n[nH]c2cn1` [Example 224, N-(4-Fluoro-2-methyl-3-(3-(1-methyl-1H-pyrazol-4-yl)-1H-pyrazolo[3,4-c]pyridin-5-yl)benzyl)-1-(1-methylcyclopropyl)methanamine] it is no more than 100 nM; for `CNCc1cc(F)c(-c2cc3c(-c4ccc(OC)cc4)n[nH]c3cn2)c(F)c1` [Example 165, 1-(3,5-Difluoro-4-(3-(4-methoxyphenyl)-1H-pyrazolo[3,4-c]pyridin-5-yl)phenyl)-N-methylmethanamine] it is no more than 100 nM.
As to `Cc1cccc(F)c1-c1cc2c(NC(=O)c3ccc(N4CCN(C)CC4)cc3)n[nH]c2cn1` [Example 152, N-(5-(2-Fluoro-6-methylphenyl)-1H-pyrazolo[3,4-c]pyridin-3-yl)-4-(4-methylpiperazin-1-yl)benzamide], the Ki is no more than 100 nM.

Broadly, the Ki is a measure of affinity in units of concentration, obtained from inhibition or displacement. A high value points to lower affinity.
